This passage reports Kd and IC50 results from patent US20130196984A1, “3-AMINO-5-PHENYL-56-DIHYDRO-2H-[1,4]OXAZINES” (Siena Biotech S.p.A., priority 2009, published 2013).

Structures can show the parent of a compound that is named as a salt.

For one test, the target named is T1, BACE2 (Homo sapiens, UniProt Q9Y5Z0).
T1 construct: BACE2 enzyme ectodomain (derived from plasmid “pET17b-T7-hu proBACE2”); T7 (N); made in house
T1 sequence (Q9Y5Z0 63-473 limits assumed): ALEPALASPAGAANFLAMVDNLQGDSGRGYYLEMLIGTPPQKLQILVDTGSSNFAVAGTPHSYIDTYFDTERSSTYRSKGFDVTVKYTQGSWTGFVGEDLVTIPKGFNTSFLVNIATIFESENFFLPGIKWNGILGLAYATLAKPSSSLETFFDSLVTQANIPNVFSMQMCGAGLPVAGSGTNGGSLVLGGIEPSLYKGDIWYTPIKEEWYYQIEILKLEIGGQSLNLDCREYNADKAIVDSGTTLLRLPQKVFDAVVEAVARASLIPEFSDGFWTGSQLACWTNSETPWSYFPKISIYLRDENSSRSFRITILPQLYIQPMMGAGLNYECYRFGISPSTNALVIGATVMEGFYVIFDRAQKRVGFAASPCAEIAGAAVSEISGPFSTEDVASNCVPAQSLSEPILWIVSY
Description: Assay A: binding studies using SPR based methods, immobilised BACE2. As to conditions: CM5 chip, immobilised BACE2 enzyme ectodomain, acetate buffer pH 4.6, 4% DMSO.

In test [1] the target is T2, BACE1 (Homo sapiens, UniProt P56817). Description: Assay A: binding studies using SPR based methods, immobilised BACE1.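 Further: KD from a 1:1 kinetic fit (koff/kon) of real-time association and dissociation curves, or for fast binders from end-of-association equilibrium responses plotted against log concentration.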 More on the design: 6his-tagged full length BACE 1 expressed in SF9 cells; 6His; made in house; host or cells: SF9 insect cells. The conditions noted are these: CM5 chip, immobilised 6his-tagged full length BACE 1, acetate buffer pH 4.6, 4% DMSO. Background: Surface plasmon resonance follows binding to a sensor surface in real time, without labels.

Test [2] concerns the target T2, BACE1. Briefly: Cellular Abeta-lowering assay. In kind it is cell-based. More on the design: endogenous in cells; host or cells: HEK293 stably transfected with human APP695 wt. As to conditions: HEK293 cells stably transfected with human APP wt (APP695), Aβ40 ELISA of supernatant after 18-20 hrs. A general note: An ELISA detects its analyte on a solid surface through an enzyme-linked reagent.

T2 sequence (P56817 46-501): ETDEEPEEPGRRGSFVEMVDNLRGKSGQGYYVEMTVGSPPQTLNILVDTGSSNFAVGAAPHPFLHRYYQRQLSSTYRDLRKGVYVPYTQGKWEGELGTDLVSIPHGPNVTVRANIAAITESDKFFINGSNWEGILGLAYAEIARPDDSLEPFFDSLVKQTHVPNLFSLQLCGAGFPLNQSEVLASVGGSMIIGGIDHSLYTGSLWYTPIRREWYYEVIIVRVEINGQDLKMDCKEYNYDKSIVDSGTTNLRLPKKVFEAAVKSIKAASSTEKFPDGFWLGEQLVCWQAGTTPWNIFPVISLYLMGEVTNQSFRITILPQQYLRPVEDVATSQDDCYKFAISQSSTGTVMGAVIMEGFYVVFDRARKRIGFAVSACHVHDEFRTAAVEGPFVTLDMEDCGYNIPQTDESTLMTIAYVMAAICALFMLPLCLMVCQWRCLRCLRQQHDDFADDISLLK

One may read the Kd as the concentration at which binding is half-saturated. The low end stands for a tighter complex, the high end for a looser complex. As to `CCC(C)c1cc(Cl)cnc1C(=O)Nc1ccc(F)c([C@]2(C)COCC(N)=N2)c1` (mixture of isomers) [Example 71, 3-((RS)-sec-butyl)-5-chloro-pyridine-2-carboxylic acid [3-((R)-5-amino-3-methyl-3,6-dihydro-2H-[1,4]oxazin-3-yl)-4-fluoro-phenyl]-amide hydrochloride], the Kd at BACE2 turned out to be 6 µM; on BACE1 [1], 1.5 µM.
With `C[C@@]1(c2cc(NC(=O)C(CC3CCCO3)C(F)(F)F)ccc2F)COCC(N)=N1` (mixture of isomers) [Example 85, (RS)—N-[3-((R)-5-amino-3-methyl-3,6-dihydro-2H-[1,4]oxazin-3-yl)-4-fluoro-phenyl]-3,3,3-trifluoro-2-[(RS)-1-(tetrahydro-furan-2-yl)methyl]-propionamide formate], the dissociation constant Kd is 6.9 µM on BACE2 and > 10 µM at BACE1 [1].
In the same order, the values of `C[C@@]1(c2cc(NC(=O)C3CCOC3)ccc2F)COCC(N)=N1` (mixture of isomers) [Example 96, (RS)-tetrahydro-furan-3-carboxylic acid [3-((R)-5-amino-3-methyl-3,6-dihydro-2H-[1,4]oxazin-3-yl)-4-fluoro-phenyl]-amide formate] are 6.1 µM and > 10 µM.
In the same order, the values of `CC1(c2cccc(NC(=O)c3ccc(Cl)cc3F)c2)COCC(N)=N1` (racemic) [Example 3, (RS)—N-[3-(5-amino-3-methyl-3,6-dihydro-2H-[1,4]oxazin-3-yl)-phenyl]-4-chloro-2-fluoro-benzamide] are 0.58 µM and 1.68 µM.
In the same order, the values of `CC1(c2cccc(NC(=O)c3cc(F)ccc3F)c2)COCC(N)=N1` (racemic) [Example 5, (RS)—N-[3-(5-amino-3-methyl-3,6-dihydro-2H-[1,4]oxazin-3-yl)-phenyl]-2,5-difluoro-benzamide] are 5.3 µM and 62.5 µM.
Regarding `Cc1nc(C(=O)Nc2cccc(C3(C)COCC(N)=N3)c2)cs1` (racemic) [Example 10, (RS)-2-methyl-thiazole-4-carboxylic acid [3-(5-amino-3-methyl-3,6-dihydro-2H-[1,4]oxazin-3-yl)-phenyl]-amide], the Kd was found to be 0.361 µM on BACE2 and 3.3 µM on BACE1 [1].
For orientation: IC50 means the concentration that gives 50% inhibition. High values mean weaker potency, low ones greater potency. For the compound `Cc1nc(C(=O)Nc2cccc(C3(C)COCC(N)=N3)c2)c(C)o1` (racemic) [Example 11, (RS)-2,5-dimethyl-oxazole-4-carboxylic acid [3-(5-amino-3-methyl-3,6-dihydro-2H-[1,4]oxazin-3-yl)-phenyl]-amide], the Kd at BACE2 came to 0.044 µM; at BACE1 [1] it was 0.49 µM. On BACE1 [2], this compound yielded a half-inhibitory concentration (IC50) of 0.041 µM.
As to `CC1(c2cccc(NC(=O)c3ccn(CC(F)(F)F)n3)c2)COCC(N)=N1` (racemic) [Example 14, (RS)-1-(2,2,2-trifluoro-ethyl)-1H-pyrazole-3-carboxylic acid [3-(5-amino-3-methyl-3,6-dihydro-2H-[1,4]oxazin-3-yl)-phenyl]-amide], the equilibrium dissociation constant (Kd) was found to be 5.4 µM on BACE2 and 33 µM at BACE1 [1].
The matching figures for `Cn1nc(C(=O)Nc2cccc(C3(C)COCC(N)=N3)c2)c2ccccc21` (racemic) [Example 15, (RS)-1-methyl-1H-indazole-3-carboxylic acid [3-(5-amino-3-methyl-3,6-dihydro-2H-[1,4]oxazin-3-yl)-phenyl]-amide]: 6.7 µM and 20.1 µM.
In the same order, the values of `CC1(c2cccc(NC(=O)c3cc4ccccn4n3)c2)COCC(N)=N1` (racemic) [Example 16, (RS)-Pyrazolo[1,5-a]pyridine-2-carboxylic acid [3-(5-amino-3-methyl-3,6-dihydro-2H-[1,4]oxazin-3-yl)-phenyl]-amide] are 0.513 µM and 1.41 µM.
As to `NC1=NC(c2cc(NC(=O)c3ccc(OCC(F)(F)F)cn3)ccc2F)(C2CC2)COC1` (racemic) [Example 23, (RS)-5-(2,2,2-Trifluoro-ethoxy)-pyridine-2-carboxylic acid [3-(5-amino-3-cyclopropyl-3,6-dihydro-2H-[1,4]oxazin-3-yl)-4-fluoro-phenyl]-amide], the equilibrium dissociation constant (Kd) worked out at 10.8 µM at BACE2 and 0.309 µM on BACE1 [1]. Also, the IC50 at BACE1 [2] turned out to be 0.16 µM.
In the case of `CC1(c2cccc(NC(=O)c3ccc(OCC(F)(F)F)cn3)c2)COCC(N)=N1` (racemic) [Example 24, (RS)-5-(2,2,2-Trifluoro-ethoxy)-pyridine-2-carboxylic acid [3-(5-amino-3-methyl-3,6-dihydro-2H-[1,4]oxazin-3-yl)-phenyl]-amide hydrochloride], the Kd was 5.75 µM at BACE2 and 1.88 µM at BACE1 [1]. On BACE1 [2], the 50% inhibitory concentration (IC50) stood at 0.12 µM.
For `CC1(c2cccc(NC(=O)c3ncc(Cl)cc3F)c2)COCC(N)=N1` (racemic) [Example 68, hydrochloride], half-maximal inhibition against BACE1 [2] (IC50) required 0.01 µM.
Still for that read-out and setting: the value for `CC1(c2cccc(NC(=O)c3ccc(C#N)cn3)c2)COCC(N)=N1` (racemic) [Example 69, 5-cyano-pyridine-2-carboxylic acid [3-((RS)-5-amino-3-methyl-3,6-dihydro-2H-[1,4]oxazin-3-yl)-phenyl]-amide hydrochloride] was 0.009 µM.
With `CC1(c2cc(NC(=O)CC(F)(F)F)ccc2F)COCC(N)=N1` (racemic) [Example 79, (RS)—N-[3-(5-Amino-3-methyl-3,6-dihydro-2H-[1,4]oxazin-3-yl)-4-fluoro-phenyl]-3,3,3-trifluoro-propionamide], the Kd at BACE2 is 4.9 µM; at BACE1 [1], 4 µM.
In turn, `C[C@@]1(c2cc(NC(=O)c3ccc(Cl)cn3)ccc2F)CO[C@H](c2ccccc2)C(N)=N1` [Example 30, 5-Chloro-pyridine-2-carboxylic acid [3-((3R,6R)-5-amino-3-methyl-6-phenyl-3,6-dihydro-2H-[1,4]oxazin-3-yl)-4-fluoro-phenyl]-amide] gave an IC50 at BACE1 [2] of 0.023 µM.
Compound `C[C@@]1(c2cc(NC(=O)c3ccc(Cl)cn3)ccc2F)CO[C@@H](c2ccccc2)C(N)=N1` [Example 31, 5-Chloro-pyridine-2-carboxylic acid [3-((3R,6S)-5-amino-3-methyl-6-phenyl-3,6-dihydro-2H-[1,4]oxazin-3-yl)-4-fluoro-phenyl]-amide] showed an IC50 against BACE1 [2] of 0.023 µM.
In the case of `CC1(C)OCC(N)=N[C@]1(C)c1cc(NC(=O)C2CC2)ccc1F` [Example 54, cyclopropanecarboxylic acid [3-((R)-5-amino-2,2,3-trimethyl-3,6-dihydro-2H-[1,4]oxazin-3-yl)-4-fluoro-phenyl]-amide], the dissociation constant Kd on BACE2 was 6.1 µM; at BACE1 [1] it was > 10 µM.
The matching figures for `C[C@@]1(c2cc(NC(=O)C3CC(Cl)C3)ccc2F)COCC(N)=N1` (stereo partly drawn) [Example 58, 3-chloro-cyclobutanecarboxylic acid [3-((R)-5-amino-3-methyl-3,6-dihydro-2H-[1,4]oxazin-3-yl)-4-fluoro-phenyl]-amide]: 3.6 µM and > 10 µM.
For `C[C@@]1(c2cc(NC(=O)C3CC(F)(F)C3)ccc2F)COCC(N)=N1` [Example 59, 3,3-difluoro-cyclobutanecarboxylic acid [3-((R)-5-amino-3-methyl-3,6-dihydro-2H-[1,4]oxazin-3-yl)-4-fluoro-phenyl]-amide], the values for the Kd at BACE2 and at BACE1 [1] were 4 µM and 9.6 µM, respectively.
As to `C[C@@]1(c2cc(NC(=O)c3ncc(C#N)cc3Cl)ccc2F)COCC(N)=N1` [Example 67, 3-Chloro-5-cyano-pyridine-2-carboxylic acid [3-((R)-5-amino-3-methyl-3,6-dihydro-2H-[1,4]oxazin-3-yl)-4-fluoro-phenyl]-amide hydrochloride], the Kd was 0.015 µM on BACE2 and 0.011 µM on BACE1 [1].
The matching figures for `CCc1cc(Cl)cnc1C(=O)Nc1ccc(F)c([C@]2(C)COCC(N)=N2)c1` [Example 70, 5-chloro-3-ethyl-pyridine-2-carboxylic acid [3-((R)-5-amino-3-methyl-3,6-dihydro-2H-[1,4]oxazin-3-yl)-4-fluoro-phenyl]-amide hydrochloride]: 0.045 µM and 1.1 µM.
Regarding `COCC1(C(=O)Nc2ccc(F)c([C@]3(C)COCC(N)=N3)c2)CC1` [Example 86, 1-methoxymethyl-cyclopropanecarboxylic acid [3-((R)-5-amino-3-methyl-3,6-dihydro-2H-[1,4]oxazin-3-yl)-4-fluoro-phenyl]-amide formate], the Kd at BACE2 is 3.6 µM; at BACE1 [1] it was > 10 µM.
The matching figures for `CC(C)CC(=O)Nc1ccc(F)c([C@]2(C)COCC(N)=N2)c1` [Example 95, N-[3-((R)-5-amino-3-methyl-3,6-dihydro-2H-[1,4]oxazin-3-yl)-4-fluoro-phenyl]-3-methyl-butyramide formate]: 3.6 µM and > 10 µM.
In the same order, the values of `C[C@@]1(c2cc(NC=O)ccc2F)COCC(N)=N1` [Example 97, N-[3-((R)-5-Amino-3-methyl-3,6-dihydro-2H-[1,4]oxazin-3-yl)-4-fluoro-phenyl]-formamide formate] are 1.76 µM and > 10 µM.
